ChEMBL document CHEMBL6074626, “Recent advances in triazole synthesis via click chemistry and their pharmacological applications: A review” (Bioorg Med Chem Lett, 2024)
Values after ≈ are worked out from the molar mass of the structure shown. Values belong to the molecule of their own block, whether it stands above or below them.

Legend:
[1] = target: T1, Prostaglandin G/H synthase 2 (Homo sapiens, UniProt P35354); assay: Inhibition of human recombinant COX-2
T1 sequence (P35354 whole entry): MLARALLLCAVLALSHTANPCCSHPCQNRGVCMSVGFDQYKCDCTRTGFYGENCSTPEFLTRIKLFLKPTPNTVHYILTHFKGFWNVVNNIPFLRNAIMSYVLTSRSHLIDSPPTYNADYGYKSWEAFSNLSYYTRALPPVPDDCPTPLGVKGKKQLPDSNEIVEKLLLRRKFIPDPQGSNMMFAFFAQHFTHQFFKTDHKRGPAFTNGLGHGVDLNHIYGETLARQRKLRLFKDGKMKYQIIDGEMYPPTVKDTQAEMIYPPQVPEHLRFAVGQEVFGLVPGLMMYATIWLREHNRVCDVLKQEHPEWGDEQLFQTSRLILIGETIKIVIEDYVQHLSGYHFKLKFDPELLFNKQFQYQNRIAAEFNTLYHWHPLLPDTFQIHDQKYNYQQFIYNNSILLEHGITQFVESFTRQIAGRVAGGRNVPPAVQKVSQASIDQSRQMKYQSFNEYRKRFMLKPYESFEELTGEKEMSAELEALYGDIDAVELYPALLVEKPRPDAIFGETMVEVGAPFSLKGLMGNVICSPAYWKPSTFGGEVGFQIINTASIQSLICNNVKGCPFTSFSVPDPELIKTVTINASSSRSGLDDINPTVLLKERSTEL

[2] = target: T2, Prostaglandin G/H synthase 1 (Ovis aries, UniProt P05979); assay: Inhibition of ovine COX-1
T2 sequence (P05979 whole entry): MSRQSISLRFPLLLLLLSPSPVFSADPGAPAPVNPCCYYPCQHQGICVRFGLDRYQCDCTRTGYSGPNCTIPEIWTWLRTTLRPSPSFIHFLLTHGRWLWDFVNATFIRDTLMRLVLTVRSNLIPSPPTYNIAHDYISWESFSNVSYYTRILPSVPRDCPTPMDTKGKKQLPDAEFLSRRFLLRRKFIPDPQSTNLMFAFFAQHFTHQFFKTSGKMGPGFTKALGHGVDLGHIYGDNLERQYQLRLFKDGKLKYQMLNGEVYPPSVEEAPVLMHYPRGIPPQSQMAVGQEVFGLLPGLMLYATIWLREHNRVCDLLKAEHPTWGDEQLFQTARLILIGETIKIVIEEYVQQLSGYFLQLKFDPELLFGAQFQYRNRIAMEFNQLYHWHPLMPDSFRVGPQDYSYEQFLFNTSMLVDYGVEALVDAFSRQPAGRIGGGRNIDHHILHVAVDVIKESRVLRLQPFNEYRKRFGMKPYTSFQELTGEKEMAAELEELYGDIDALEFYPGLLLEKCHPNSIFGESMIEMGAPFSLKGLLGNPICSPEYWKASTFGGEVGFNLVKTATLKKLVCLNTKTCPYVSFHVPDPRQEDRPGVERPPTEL

[3] = test system: Bacillus cereus; assay: microbe, parasite or virus in culture; conditions: ATTC 10876
Description: Antibacterial activity against Bacillus cereus ATTC 10876 assessed as reduction in bacterial growth incubated for 18 to 24 hrs by broth microdilution method

[4] = test system: Pseudomonas aeruginosa; assay: microbe, parasite or virus in culture; conditions: ATCC 27853
Description: Antimicrobial activity against Pseudomonas aeruginosa ATCC 27853 assessed as inhibition of microbial growth by CLSI protocol based two-fold serial broth microdilution method

[5] = test system: Enterococcus faecalis; assay: microbe, parasite or virus in culture; conditions: ATCC 29212, 24 h
Description: Antibacterial activity against Enterococcus faecalis ATCC 29212 assessed as inhibition of bacterial growth incubated for 24 hrs by broth microdilution method

[6] = test system: Enterococcus faecalis; assay: microbe, parasite or virus in culture; conditions: ATTC 29212, 24 h
Description: Antibacterial activity against Enterococcus faecalis ATCC 29212 assessed as reduction in bacterial growth incubated for 24 hrs by CLSI protocol based assay

[7] = test system: Proteus mirabilis; assay: microbe, parasite or virus in culture; conditions: ATCC 35659
Description: Antibacterial activity against Proteus mirabilis ATCC 35659 assessed as reduction in bacterial growth incubated for 18 to 24 hrs by broth microdilution method

[8] = test system: Staphylococcus aureus; assay: microbe, parasite or virus in culture; conditions: ATCC 25923
Description: Antibacterial activity against Staphylococcus aureus ATCC 25923 assessed as reduction in bacterial growth incubated for 18 to 24 hrs by broth microdilution method

[9] = test system: Escherichia coli; assay: microbe, parasite or virus in culture; conditions: ATCC 25922
Description: Antibacterial activity against Escherichia coli ATCC 25922 assessed as reduction in bacterial growth incubated for 18 to 24 hrs by broth microdilution method

[10] = test system: Klebsiella pneumoniae; assay: microbe, parasite or virus in culture; conditions: ATCC 43816, 20 h
Description: Antimicrobial activity against Klebsiella pneumoniae ATCC 43816 assessed as reduction in bacterial growth incubated for 20 hrs by broth microdilution analysis

[11] = test system: Staphylococcus aureus; assay: microbe, parasite or virus in culture; conditions: NCTC 13616, 20 h
Description: Antibacterial activity against methicillin-resistant Staphylococcus aureus NCTC 13616 assessed as reduction in bacterial growth incubated for 20 hrs by broth micro-dilution method

[12] = test system: Bacillus subtilis; assay: microbe, parasite or virus in culture; conditions: ATCC 6633, 20 h
Description: Antibacterial activity against Bacillus subtilis ATCC 6633 assessed as bacterial growth inhibition measured for 20 hrs by micro-broth dilution method

[13] = test system: Escherichia coli; assay: microbe, parasite or virus in culture; conditions: ATCC 8739, 20 h
Description: Antimicrobial activity against Escherichia coli ATCC 8739 assessed as reduction in bacterial growth incubated for 20 hrs by broth microdilution analysis

[14] = test system: Bacillus cereus; assay: microbe, parasite or virus in culture; conditions: ATCC 14579
Description: Antibacterial activity against Bacillus cereus ATCC 14579 assessed as reduction in bacterial growth incubated for 18 to 24 hrs by broth microdilution method

[15] = test system: Proteus vulgaris; assay: microbe, parasite or virus in culture; conditions: ATCC 13315, 24 h
Description: Antimicrobial activity against Proteus vulgaris ATCC 13315 assessed as microbial growth inhibition incubated for 24 hrs by broth microdilution method

[16] = test system: MOLT-4; assay: Cytotoxicity against human MOLT-4 cells assessed as reduction in cell viability incubated for 72 hrs by MTT assay; conditions: MOLT-4, 72 h
[17] = test system: HT-29; assay: Cytotoxicity against human HT-29 cells assessed as reduction in cell viability incubated for 72 hrs by MTT assay; conditions: HT-29, 72 h
[18] = test system: MCF7; assay: Cytotoxicity against human MCF7 cells assessed as reduction in cell viability incubated for 72 hrs by MTT assay; conditions: MCF7, 72 h
[19] = Antioxidant activity assessed as DPPH radical scavenging activity incubated for 30 mins

Structure (SMILES): CN(C)C(=O)c1ccc(/C=C/C(=O)c2cc(-n3cc(CN4C(=O)C(=O)c5ccccc54)nn3)ccc2O)cc1
IC50 [1]: 0.037 µM | IC50 [2]: 7.4 µM

Structure (SMILES): O=C(/C=C/c1ccc(O)cc1)c1cc(-n2cc(-c3ccccc3)nn2)ccc1O
IC50 [1]: 0.037 µM | IC50 [2]: 7.4 µM

Structure (SMILES): CC(C)Cc1ccc(C(C)C(=O)c2ccc(OCc3cn(C4CCCCC4)nn3)cc2O)cc1 (stereo not given)
MIC [10]: 12 µg/mL (≈ 26 µM) | MIC [11]: 12 µg/mL (≈ 26 µM) | MIC [12]: 12 µg/mL (≈ 26 µM) | MIC [13]: 12 µg/mL (≈ 26 µM) | MIC [14]: 12 µg/mL (≈ 26 µM) | MIC [15]: 12 µg/mL (≈ 26 µM)

Structure (SMILES): CCCCCCCCn1cc(COc2ccc(C(=O)C(C)c3ccc(CC(C)C)cc3)c(O)c2)nn1 (stereo not given)
MIC [10]: 12 µg/mL (≈ 24.4 µM) | MIC [11]: 12 µg/mL (≈ 24.4 µM) | MIC [12]: 12 µg/mL (≈ 24.4 µM) | MIC [13]: 12 µg/mL (≈ 24.4 µM) | MIC [14]: 12 µg/mL (≈ 24.4 µM) | MIC [15]: 12 µg/mL (≈ 24.4 µM)

Structure (SMILES): O=C1C=C(NCc2cn(Cc3ccc(C(F)(F)F)cc3)nn2)C(=O)c2ccccc21
IC50 [16]: 10.4 µM | IC50 [17]: 6.8 µM | IC50 [18]: 10.4 µM

Structure (SMILES): O=C(/C=C/c1ccc(O)cc1)c1cc(-n2cc(CN3C(=O)C(=O)c4ccccc43)nn2)ccc1O
IC50 [1]: 0.037 µM | IC50 [2]: 7.4 µM

Structure (SMILES): O=C(/C=C/c1ccc(Cl)cc1)c1cc(-n2cc(CN3C(=O)C(=O)c4ccccc43)nn2)ccc1O
IC50 [1]: 0.037 µM | IC50 [2]: 7.4 µM

Structure (SMILES): CC(C)Cc1ccc(C(C)C(=O)c2ccc(OCc3cn(C4CCCC4)nn3)cc2O)cc1 (stereo not given)
MIC [10]: 12 µg/mL (≈ 26.8 µM) | MIC [11]: 12 µg/mL (≈ 26.8 µM) | MIC [12]: 12 µg/mL (≈ 26.8 µM) | MIC [13]: 12 µg/mL (≈ 26.8 µM) | MIC [14]: 12 µg/mL (≈ 26.8 µM) | MIC [15]: 12 µg/mL (≈ 26.8 µM)

Structure (SMILES): O=C(/C=C/c1ccc(Cl)cc1)c1cc(-n2cc(-c3ccccc3)nn2)ccc1O
IC50 [1]: 0.037 µM | IC50 [2]: 7.4 µM

Structure (SMILES): O=C(/C=C/C=C/c1ccccc1)c1cc(-n2cc(-c3ccccc3)nn2)ccc1O
IC50 [1]: 0.037 µM | IC50 [2]: 7.4 µM

Structure (SMILES): O=C(/C=C/c1ccc(Br)cc1)c1cc(-n2cc(-c3ccccc3)nn2)ccc1O
IC50 [1]: 0.037 µM | IC50 [2]: 7.4 µM

Structure (SMILES): COc1cc(/C=C/C(=O)c2cc(-n3cc(CN4C(=O)C(=O)c5ccccc54)nn3)ccc2O)cc(OC)c1OC
IC50 [1]: 0.037 µM | IC50 [2]: 7.4 µM

Structure (SMILES): CC(C)Cc1ccc(C(C)C(=O)c2ccc(OCc3cn(-c4cccc(Cl)c4)nn3)cc2O)cc1 (stereo not given)
MIC [10]: 12 µg/mL (≈ 24.5 µM) | MIC [11]: 12 µg/mL (≈ 24.5 µM) | MIC [12]: 12 µg/mL (≈ 24.5 µM) | MIC [13]: 12 µg/mL (≈ 24.5 µM) | MIC [14]: 12 µg/mL (≈ 24.5 µM) | MIC [15]: 12 µg/mL (≈ 24.5 µM)

Structure (SMILES): COc1cc(/C=C/C(=O)c2cc(-n3cc(-c4ccccc4)nn3)ccc2O)cc(OC)c1OC
IC50 [1]: 0.037 µM | IC50 [2]: 7.4 µM

Next, values leading:

IC50 [2]: 7.4 µM
Structure (SMILES): COc1ccc(/C=C/C(=O)c2cc(-n3cc(CN4C(=O)C(=O)c5ccccc54)nn3)ccc2O)cc1

MIC [3]: 1 µM (≈ 0.522 µg/mL) | MIC [4]: 1 µM (≈ 0.522 µg/mL) | MIC [5]: 1 µM (≈ 0.522 µg/mL) | MIC [6]: 1 µM (≈ 0.522 µg/mL) | MIC [7]: 1 µM (≈ 0.522 µg/mL) | MIC [8]: 1 µM (≈ 0.522 µg/mL) | MIC [9]: 1 µM (≈ 0.522 µg/mL)
Structure (SMILES): CCCCCCCCCCCCCCCCn1nnc(-c2n[nH]c(=S)n2N)c1-c1n[nH]c(=S)n1N

IC50 [1]: 0.037 µM | IC50 [2]: 7.4 µM
Structure (SMILES): COc1ccc(/C=C/C(=O)c2cc(-n3cc(-c4ccccc4)nn3)ccc2O)cc1

MIC [3]: 1 µM (≈ 0.438 µg/mL) | MIC [4]: 1 µM (≈ 0.438 µg/mL) | MIC [5]: 1 µM (≈ 0.438 µg/mL) | MIC [6]: 1 µM (≈ 0.438 µg/mL) | MIC [7]: 1 µM (≈ 0.438 µg/mL) | MIC [8]: 1 µM (≈ 0.438 µg/mL) | MIC [9]: 1 µM (≈ 0.438 µg/mL)
Structure (SMILES): CCCCCCCCCCn1nnc(-c2n[nH]c(=S)n2N)c1-c1n[nH]c(=S)n1N

IC50 [1]: 0.037 µM | IC50 [2]: 7.4 µM
Structure (SMILES): Cc1ccc(/C=C/C(=O)c2cc(-n3cc(CN4C(=O)C(=O)c5ccccc54)nn3)ccc2O)cc1

IC50 [19]: 36 µM
Structure (SMILES): CCCCCc1ccc(-c2cn(CCCOc3ccc(-c4cc(=O)c5ccccc5o4)cc3)nn2)cc1
